The conditions of series [1]: background; cited from earlier work.
The test system of series [2] is AcCh receptors. Particulars: background; cited from earlier work.
For series [3] the following is noted: peripheral administration; background; cited from earlier work.
For series [4] the following is noted: peripheral administration; background; cited from earlier work. The source holds these as a separate data set.
Series [5] has as its target central cholinergic receptors. Description: 3H-oxotremorine-M (Oxo-M) displacement from rat brain homogenates. Format: binding. To be noted: displacement of 3H-oxotremorine-M, pH 7.4, 40 min, 30° C. The procedure: (§1) Affinity to central cholinergic receptors in vitro was measured as the ability of the compounds to displace ^3 H-oxotremorine-M (Oxo-M) from rat brain homogenates, while affinity to central muscarinic M-1-receptors in vitro was measured as the ability of the compounds to displace ^3 H-pirenzepin (Pz) from rat brain homogenates.
^3 H-oxotremorine M binding
was performed essentially as described by Birdsdall et al., 1980. Briefly, rat brains were homogenized in 100 vol (w/v) 10 mM Na,K-phosphate buffer (pH 7.4) and aliquots incubated with ^3 H-oxotremorine M (84.9 Ci/m-mol, NEN) alone or in the presence of test compound in a total volume of 1.5 ml for 40 min. at 30° C. The reaction was stopped by adding 5 ml cold buffer and filtered through Whatman GF/B filters soaked previously in 0.1% polyethylenimin (Sigma) for minimum 30 min. The filters were washed once with the same volume of buffer, transferred to scintillation vials and extracted in scintillation fluid (Pico-fluor 15, Packard) for at least two hours before counted in a liquid scintillation spectrometer (Beckman LS 1800). Non-specific binding was estimated at 10 μM atropine and all estimations made in triplicate. At least two displacement curves were made for each compound tested.
Birdsdall N. J. M., Hulme E. C., and Burgen A. S. V. (1980). "The Character of Muscarinic Receptors in Different Regions of the Rat Brain". Proc. Roy. […] London (Series B) 207, 1.
In general terms: In a radioligand displacement assay an active substance lowers the binding of a labelled ligand.

The target in series [6] is T1, central muscarinic M-1-receptors (Rattus norvegicus, UniProt P08482).
T1 sequence (P08482 1-460): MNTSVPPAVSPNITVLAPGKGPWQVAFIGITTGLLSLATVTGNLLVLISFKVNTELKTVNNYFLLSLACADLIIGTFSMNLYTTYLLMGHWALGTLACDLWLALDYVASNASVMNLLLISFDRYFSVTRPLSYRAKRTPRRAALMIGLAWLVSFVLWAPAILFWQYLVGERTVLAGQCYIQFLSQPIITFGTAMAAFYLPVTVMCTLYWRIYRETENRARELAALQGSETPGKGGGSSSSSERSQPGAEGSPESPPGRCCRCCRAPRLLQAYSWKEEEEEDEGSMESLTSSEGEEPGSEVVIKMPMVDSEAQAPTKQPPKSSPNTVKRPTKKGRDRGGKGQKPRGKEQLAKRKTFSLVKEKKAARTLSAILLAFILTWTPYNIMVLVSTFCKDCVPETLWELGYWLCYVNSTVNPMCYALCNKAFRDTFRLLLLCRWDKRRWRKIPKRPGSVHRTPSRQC
Description: 3H-pirenzepine (Pz) displacement from rat brain homogenates. Format: binding. Particulars: displacement of 1.0 nM 3H-pirenzepine, rat brain homogenates, 60 min, 25° C; read-out: Pz, IC50. Here is the method: as §1
was performed essentially as described by Watson et al., 1983, the conditions being very much the same as for ^3 H-oxotremorine binding, except that aliquots were incubated with 1.0 nM ^3 H-pirenzepine for 60 min. at 25° C. and that the reaction was stopped by direct filtration followed by 3 washes with 4 ml buffer.
Watson, M., Yamamura, H. I., and Roeske, W. R. (1983). "A unique regulatory profile and regional distribution of ^3 H-pirenzepin binding in the rat provide evidence for distinct M1 and M2 muscarinic receptor subtypes". Life Sci. 32 (1983) 3001-3011.

Counter-ions that a name gives are not always drawn.

Here are results for 9 compounds from patent publication USRE36374E, “1,2,3-triazole and tetrazole substituted piperidine or tetrahydropyridine compounds useful as acetylcholine agonists” (priority 1987, dated 1999).

What is called IC50 is the concentration that gives 50% inhibition.

For `COC(=O)C1=CCCN(C)C1` [Arecoline, methyl 1-methyl-1,2,5,6-tetrahydropyridine-3-carboxylate], the “hydrolysis of ester group in vivo” value in series [1] is on record as “very rapidly hydrolyzed in vivo”. The AcCh agonist activity result in series [2] was “AcCh agonist”. For the same compound, the central effects result in series [3] was “very weak and frequently negligible central effects”. Moreover, the “penetration of blood-brain barrier” value in series [4] is given as “capable of penetrating the BBB”.
With `COc1cnc(C2=CCCNC2)o1` [Compound 81, 5-Methoxy-2-(1,2,5,6-tetrahydro-3-pyridyl)-oxazole, 1.25 fumarate], the IC50 in series [5] is 220 nM; in series [6], 4200 nM.
For `Cc1coc(C2=CCCN(C)C2)n1` [Compound 84, 4-Methyl-2-(1-methyl-1,2,5,6-tetrahydro-3-pyridyl)-oxazole, oxalate], in that order: 28 nM and 58 nM.
Taken in the same sequence, the figures for `Cc1coc(C2=CCCNC2)n1` [Compound 85, 4-Methyl-2-(1,2,5,6-tetrahydro-3-pyridyl)-oxazole, fumarate] were 7.5 nM and 1400 nM.
For the compound `CN1CCC=C(C2=NC(C)(C)CO2)C1` [Compound 87, 4,4-Dimethyl-2-1-methyl-1,2,5,6-tetrahydro-3-pyridyl)-oxazoline, fumarate], the IC50 in series [5] was determined as 130 nM; in series [6], 400 nM.
As to `Cc1cnc(C2=CCCN(C)C2)s1` [Compound 90, 5-Methyl-2-(1-methyl-1,2,5,6-tetrahydro-3-pyridyl)-thiazole, hemifumarate], the IC50 in series [5] was 180 nM; in series [6], 420 nM.
In the case of `Cc1cnc(C2=CCCNC2)s1` [Compound 91, 5-Methyl-2-(1,2,5,6-tetrahydro-3-pyridyl)-thiazole, fumarate], the values for the IC50 in series [5] and in series [6] were 360 nM and 1000 nM, respectively.
For `CSc1cnc(C2=CCCN(C)C2)s1` [Compound 93, 5-Methylthio-2-(1-methyl-1,2,5,6-tetrahydro-3-pyridyl)-thiazole, fumarate], in that order: 18 nM and 130 nM.
Taken in the same sequence, the figures for `Cc1cc(C2=CCCN(C)C2)nn1C` [Compound 95, 1,5-Dimethyl-3-(1-methyl-1,2,5,6-tetrahydro-3-pyridyl)-pyrazole, dihydrochloride] were 350 nM and 180 nM.
